ChEMBL document CHEMBL1201861, “Genomics of Drug Sensitity in Cancer screening data, Wellcome Trust Sanger Institute”

Legend:
Test in all cases: cells
Format in all cases: functional, cell-based, Homo sapiens
SCC-15 = details: Homo sapiens, SCC-15;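 note: growth inhibition of SCC-15 cells, read out with a cell viability assay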
Description: SANGER: Inhibition of human SCC-15 cell growth in a cell viability assay.

EW-1 = details: Homo sapiens, EW-1
Description: SANGER: Inhibition of human EW-1 cell growth in a cell viability assay.

GCIY = details: Homo sapiens, GCIY;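 note: growth inhibition of the human GCIY cell line, read out by a cell viability assay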
Description: SANGER: Inhibition of human GCIY cell growth in a cell viability assay.

GR-ST = details: Homo sapiens, GR-ST
Description: SANGER: Inhibition of human GR-ST cell growth in a cell viability assay.

TE-11 = details: Homo sapiens, TE-11;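 note: growth inhibition of human TE-11 cells, read out by a cell viability assay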
Description: SANGER: Inhibition of human TE-11 cell growth in a cell viability assay.

DJM-1 = details: Homo sapiens, DJM-1;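 note: growth inhibition of human DJM-1 cells, read out by a cell viability assay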
Description: SANGER: Inhibition of human DJM-1 cell growth in a cell viability assay.

EW-18 = details: Homo sapiens, EW-18;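 note: growth inhibition of EW-18 cells, read out by a cell viability assay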
Description: SANGER: Inhibition of human EW-18 cell growth in a cell viability assay.

KP-N-YS = details: Homo sapiens, KP-N-YS;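 note: cell viability assay measuring inhibition of cell line growth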
Description: SANGER: Inhibition of human KP-N-YS cell growth in a cell viability assay.

KGN = details: Homo sapiens, KGN;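 note: growth inhibition of KGN cells, read out with a cell viability assay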
Description: SANGER: Inhibition of human KGN cell growth in a cell viability assay.

COLO-320-HSR = details: Homo sapiens, COLO-320-HSR;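 note: growth inhibition of COLO-320-HSR cells, determined with a cell viability assay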
Description: SANGER: Inhibition of human COLO-320-HSR cell growth in a cell viability assay.

HCE-T = details: Homo sapiens, HCE-T;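 note: cell viability assay read-out, reporting inhibition of HCE-T cell growth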
Description: SANGER: Inhibition of human HCE-T cell growth in a cell viability assay.

LS-1034 = details: Homo sapiens, LS-1034
Description: SANGER: Inhibition of human LS-1034 cell growth in a cell viability assay.

KNS-42 = details: Homo sapiens, KNS-42;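 note: growth inhibition of KNS-42 cells, read out with a cell viability assay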
Description: SANGER: Inhibition of human KNS-42 cell growth in a cell viability assay.

OCI-AML2 = details: Homo sapiens, OCI-AML2;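 note: growth inhibition of OCI-AML2 cells, read out with a cell viability assay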
Description: SANGER: Inhibition of human OCI-AML2 cell growth in a cell viability assay.

NCI-H747 = details: Homo sapiens, NCI-H747;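 note: growth inhibition of human NCI-H747 cells, read out by a cell viability assay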
Description: SANGER: Inhibition of human NCI-H747 cell growth in a cell viability assay.

MHH-PREB-1 = details: Homo sapiens, MHH-PREB-1;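 note: cell viability assay measuring inhibition of proliferation of human MHH-PREB-1 cells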
Description: SANGER: Inhibition of human MHH-PREB-1 cell growth in a cell viability assay.

KARPAS-299 = details: Homo sapiens, KARPAS-299
Description: SANGER: Inhibition of human KARPAS-299 cell growth in a cell viability assay.

EKVX = details: Homo sapiens, EKVX;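 note: growth inhibition of human EKVX cells, read out with a cell viability assay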
Description: SANGER: Inhibition of human EKVX cell growth in a cell viability assay.

MSTO-211H = details: Homo sapiens, MSTO-211H
Description: SANGER: Inhibition of human MSTO-211H cell growth in a cell viability assay.

P30-OHK = details: Homo sapiens, P30-OHK;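 note: growth inhibition of the P30-OHK cell line, read out with a cell viability assay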
Description: SANGER: Inhibition of human P30-OHK cell growth in a cell viability assay.

NB69 = details: Homo sapiens, NB69;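 note: growth inhibition of NB69 cells, determined by a cell viability assay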
Description: SANGER: Inhibition of human NB69 cell growth in a cell viability assay.

A4-Fuk = details: Homo sapiens, A4-Fuk;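 note: growth inhibition of A4-Fuk cells, read out by a cell viability assay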
Description: SANGER: Inhibition of human A4-Fuk cell growth in a cell viability assay.

Mo = details: Homo sapiens, Mo
Description: SANGER: Inhibition of human Mo-T cell growth in a cell viability assay.

LB2241-RCC = details: Homo sapiens, LB2241-RCC;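 note: cell viability assay measuring how strongly the cultured human renal carcinoma line is prevented from growing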
Description: SANGER: Inhibition of human LB2241-RCC cell growth in a cell viability assay.

SK-MEL-1 = details: Homo sapiens, SK-MEL-1;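 note: growth inhibition of human SK-MEL-1 cells, read out by a cell viability assay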
Description: SANGER: Inhibition of human SK-MEL-1 cell growth in a cell viability assay.

NTERA-2-cl-D1 = details: Homo sapiens, NTERA-2-cl-D1;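 note: inhibition of cell growth, measured with a cell viability assay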
Description: SANGER: Inhibition of human NTERA-S-cl-D1 cell growth in a cell viability assay.

A388 = details: Homo sapiens, A388;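 note: growth inhibition of human A388 cells, read out with a cell viability assay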
Description: SANGER: Inhibition of human A388 cell growth in a cell viability assay.

GI-1 = details: Homo sapiens, GI-1;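 note: growth inhibition of human GI-1 cells, measured with a cell viability readout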
Description: SANGER: Inhibition of human GI-1 cell growth in a cell viability assay.

NCI-H23 = details: Homo sapiens, NCI-H23;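 note: cell viability assay measuring growth inhibition of NCI-H23 cells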
Description: SANGER: Inhibition of human NCI-H23 cell growth in a cell viability assay.

HT-144 = details: Homo sapiens, HT-144
Description: SANGER: Inhibition of human HT-144 cell growth in a cell viability assay.

JVM-3 = details: Homo sapiens, JVM-3;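 note: growth inhibition of human JVM-3 cells, read out with a cell viability assay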
Description: SANGER: Inhibition of human JVM-3 cell growth in a cell viability assay.

OS-RC-2 = details: Homo sapiens, OS-RC-2;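 note: growth inhibition of human OS-RC-2 cells, measured by a cell viability assay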
Description: SANGER: Inhibition of human OS-RC-2 cell growth in a cell viability assay.

NCI-H1304 = details: Homo sapiens, NCI-H1304;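 note: growth inhibition of the cancer cell line, measured in a cell viability assay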
Description: SANGER: Inhibition of human NCI-H1304 cell growth in a cell viability assay.

no-10 = details: Homo sapiens;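 note: growth inhibition of no-10 cells, read out with a cell viability assay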
Description: SANGER: Inhibition of human no-10 cell growth in a cell viability assay.

MHH-NB-11 = details: Homo sapiens, MHH-NB-11;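 note: growth inhibition of human MHH-NB-11 cells, read out by a cell viability assay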
Description: SANGER: Inhibition of human MHH-NB-11 cell growth in a cell viability assay.

CTV-1 = details: Homo sapiens, CTV-1;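 note: growth inhibition of the cell line, read out with a cell viability assay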
Description: SANGER: Inhibition of human CTV-1 cell growth in a cell viability assay.

NB5 = details: Homo sapiens, NB5;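 note: growth inhibition of NB5 cells, read out as cell viability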
Description: SANGER: Inhibition of human NB5 cell growth in a cell viability assay.

LS-513 = details: Homo sapiens, LS-513
Description: SANGER: Inhibition of human LS-513 cell growth in a cell viability assay.

GB-1 = details: Homo sapiens, GB-1;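 note: growth of GB-1 cells judged by a viability assay, IC50 marks the concentration inhibiting growth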
Description: SANGER: Inhibition of human GB-1 cell growth in a cell viability assay.

VA-ES-BJ = details: Homo sapiens, VA-ES-BJ;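 note: growth inhibition of the VA-ES-BJ cell line, read out by a cell viability assay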
Description: SANGER: Inhibition of human VA-ES-BJ cell growth in a cell viability assay.

JVM-2 = details: Homo sapiens, JVM-2;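 note: growth inhibition of JVM-2 cells determined by a cell viability assay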
Description: SANGER: Inhibition of human JVM-2 cell growth in a cell viability assay.

Ramos-2G6-4C10 = details: Homo sapiens, Ramos-2G6-4C10;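 note: growth inhibition of the cell line, measured by a cell viability read-out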
Description: SANGER: Inhibition of human Ramos-2G6-4C10 cell growth in a cell viability assay.

MOLT-4 = details: Homo sapiens, MOLT-4;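 note: growth inhibition of MOLT-4 cells, determined with a cell viability readout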
Description: SANGER: Inhibition of human MOLT-4 cell growth in a cell viability assay.

D283 Med = details: Homo sapiens, D283 Med
Description: SANGER: Inhibition of human D-283MED cell growth in a cell viability assay.

KALS-1 = details: Homo sapiens, KALS-1;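 note: growth inhibition of KALS-1 cells, determined with a cell viability assay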
Description: SANGER: Inhibition of human KALS-1 cell growth in a cell viability assay.

COLO-829 = details: Homo sapiens, COLO-829
Description: SANGER: Inhibition of human COLO-829 cell growth in a cell viability assay.

MMAC-SF = details: Homo sapiens, MMAC-SF;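 note: growth inhibition of human MMAC-SF cells, read out with a cell viability assay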
Description: SANGER: Inhibition of human MMAC-SF cell growth in a cell viability assay.

CP66-MEL = details: Homo sapiens, CP66-MEL;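 note: growth inhibition of CP66-MEL cells determined in a cell viability assay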
Description: SANGER: Inhibition of human CP66-MEL cell growth in a cell viability assay.

Measured: IC50

Cn1cnc2c(F)c(Nc3ccc(Br)cc3Cl)c(C(=O)NOCCO)cc21 [SELUMETINIB]
351 nM: NCI-H747
2570 nM: NB5
2400 nM: OS-RC-2
701 nM: JVM-3
971 nM: HCE-T
1420 nM: LS-513
> 4000 nM: SCC-15 | EW-1 | GCIY | GR-ST | TE-11 | DJM-1 | EW-18 | KP-N-YS | KGN | COLO-320-HSR | LS-1034 | KNS-42 | OCI-AML2 | MHH-PREB-1 | KARPAS-299 | EKVX | MSTO-211H | P30-OHK | A4-Fuk | Mo | SK-MEL-1 | NTERA-2-cl-D1 | A388 | GI-1 | NCI-H23 | NCI-H1304 | no-10 | MHH-NB-11 | CTV-1 | GB-1 | VA-ES-BJ | JVM-2 | Ramos-2G6-4C10 | MOLT-4 | D283 Med
1050 nM: NB69
790 nM: LB2241-RCC
89 nM: HT-144

CCN(CC)CCCCNc1ncc2cc(-c3cc(OC)cc(OC)c3)c(NC(=O)NC(C)(C)C)nc2n1 [PD-173074]
> 2000 nM: SCC-15 | EW-1 | GCIY | GR-ST | TE-11 | DJM-1 | EW-18 | KP-N-YS | KGN | COLO-320-HSR | HCE-T | LS-1034 | KNS-42 | OCI-AML2 | KALS-1 | NCI-H747 | MHH-PREB-1 | KARPAS-299 | EKVX | P30-OHK | NB69 | A4-Fuk | Mo | LB2241-RCC | SK-MEL-1 | NTERA-2-cl-D1 | A388 | GI-1 | NCI-H23 | HT-144 | JVM-3 | OS-RC-2 | NCI-H1304 | no-10 | COLO-829 | MHH-NB-11 | CTV-1 | NB5 | LS-513 | GB-1 | VA-ES-BJ | JVM-2 | Ramos-2G6-4C10 | MOLT-4 | D283 Med | MMAC-SF
1470 nM: MSTO-211H

COc1cc2c(Nc3ccc(NC(=O)c4ccccc4)cc3)ncnc2cc1OCCCN1CCOCC1
1040 nM: LB2241-RCC
2640 nM: COLO-829
3260 nM: GI-1
3680 nM: OCI-AML2
2070 nM: CTV-1
1410 nM: Ramos-2G6-4C10
> 4000 nM: EW-1 | GCIY | GR-ST | DJM-1 | EW-18 | KP-N-YS | KGN | COLO-320-HSR | HCE-T | LS-1034 | KNS-42 | KALS-1 | MHH-PREB-1 | KARPAS-299 | EKVX | MSTO-211H | P30-OHK | Mo | SK-MEL-1 | NTERA-2-cl-D1 | NCI-H23 | HT-144 | OS-RC-2 | NCI-H1304 | no-10 | MHH-NB-11 | LS-513 | GB-1 | JVM-2 | D283 Med | MMAC-SF
2790 nM: VA-ES-BJ
537 nM: TE-11
1840 nM: NB5
3230 nM: NB69
2030 nM: NCI-H747
2750 nM: JVM-3
900 nM: MOLT-4
3500 nM: A388
3770 nM: A4-Fuk
3730 nM: SCC-15

CC1(C)CNc2cc(NC(=O)c3cccnc3NCc3ccncc3)ccc21 [MOTESANIB]
> 2000 nM: SCC-15 | EW-1 | GCIY | GR-ST | TE-11 | DJM-1 | EW-18 | KP-N-YS | KGN | COLO-320-HSR | HCE-T | LS-1034 | KNS-42 | OCI-AML2 | KALS-1 | NCI-H747 | MHH-PREB-1 | KARPAS-299 | EKVX | MSTO-211H | P30-OHK | NB69 | A4-Fuk | Mo | LB2241-RCC | SK-MEL-1 | NTERA-2-cl-D1 | A388 | GI-1 | NCI-H23 | HT-144 | JVM-3 | OS-RC-2 | NCI-H1304 | no-10 | COLO-829 | MHH-NB-11 | CTV-1 | NB5 | LS-513 | GB-1 | VA-ES-BJ | JVM-2 | Ramos-2G6-4C10 | MOLT-4 | D283 Med | MMAC-SF

CC(C)c1ccccc1Cc1cc(C(=O)Nc2ccc(S(=O)(=O)c3ccccc3C(C)(C)C)cc2)c(O)c(O)c1O
7140 nM: EKVX
231 nM: HCE-T
423 nM: NB5
227 nM: EW-1
128 nM: GI-1
348 nM: NCI-H23
436 nM: KGN
701 nM: COLO-829
130 nM: NCI-H747
1200 nM: CP66-MEL
151 nM: TE-11
607 nM: LS-513
2540 nM: KNS-42
223 nM: SCC-15
789 nM: MSTO-211H
167 nM: NTERA-2-cl-D1 | A388
253 nM: KALS-1
520 nM: DJM-1
737 nM: OS-RC-2
284 nM: D283 Med
1360 nM: LS-1034
277 nM: no-10
147 nM: LB2241-RCC
152 nM: HT-144
3140 nM: MMAC-SF
98.7 nM: GB-1
39.6 nM: VA-ES-BJ
20.8 nM: GCIY
877 nM: NB69
